In patent US7892569B2, “Methods of altering an immune response induced by CpG oligodeoxynucleotides” (The United States of America as represented by the …, priority 2005, dated 2011):

Tests used:
[1] = test system: pDC; test: Binding of FITC conjugated CpG ODN to purified pDC in the presence of scavenger receptor ligands (flow cytometry); format: cell-based, human; details: 50 μg/ml inhibitor, preincubated 20 min at 4° C., mean ± S.D
Protocol: (§1) FIGS. 3A-3D are bar graphs and plots showing the effect of scavenger receptor ligands on the binding and activity of CpG ODN. FIG. 3A is a bar graph of the results obtained when purified pDC were preincubated (20 minutes at 4° C.) with medium or with 50 μg/ml each of inhibitors followed by addition of 1 μM FITC conjugated ODN. Mean fluorescence intensity representing binding of FITC-ODN was assessed using flow cytometry. Results represent the mean±S.D of three independent experiments. FIG. 3B is a bar graph showing D ODN induced IFN-α from peripheral blood mononuclear cells (PBMC). Open bars: medium; dotted bars: chondroitin sulfate; right-striped bars: fucoidan; left-striped bars: dextran sulfate Production of IFN-α from PBMC (in the absence or presence of 50 μg/ml inhibitors) was determined by ELISA from 24 hour culture supernatants. FIG. 3C is a plot showing K ODN induced TNF-α production in pDC (in the absence or presence of 50 μg/ml dextran sulfate). TNF-α production was determined using intracytoplasmic cytokine staining (representative plots of three independent experiments). FIG. 3D is a plot showing the results obtained when purified pDC were incubated with 1 μM each of K or with 3 μM D ODN in the absence or presence of 50 μg/ml dextran sulfate. Upregulation of HLA-DR/CD54 was determined 24 hours later using flow cytometry.
To evaluate whether a scavenger receptor (SR) played a role in D ODN uptake and signaling, the ability of dextran sulfate and fucoidan (classical scavenger receptor ligands) to block the binding of CpG ODN to pDC was evaluated (Table 2 and Supplementary FIG. 3A).

[2] = test system: PBMC; test: CpG ODN induced cytokine secretion (TNF-α, IFN-α) in the absence or presence of scavenger receptor ligands; format: cell-based, human; details: 50 μg/ml inhibitor
Protocol: as §1, with “FIG. 3A is a bar graph of the results obtained when purified pDC were preincubated (20 minutes at 4° C.) with medium or with 50 μg/ml each of inhibitors followed by addition of 1 μM FITC conjugated ODN.” left out, “FIG. 3B is a bar graph showing D ODN induced IFN-α from peripheral blood mononuclear cells (PBMC).” left out, “FIG. 3C is a plot showing K ODN induced TNF-α production in pDC (in the absence or presence of 50 μg/ml dextran sulfate).” left out

[3] = test system: pDC; test: Upregulation of HLA-DR/CD54 on purified pDC by CpG ODN in the absence or presence of dextran sulfate; format: cell-based, human; details: 24 hours, 50 μg/ml inhibitor
Protocol: as §1, with “FIG. 3A is a bar graph of the results obtained when purified pDC were preincubated (20 minutes at 4° C.) with medium or with 50 μg/ml each of inhibitors followed by addition of 1 μM FITC conjugated ODN.” left out, “FIG. 3B is a bar graph showing D ODN induced IFN-α from peripheral blood mononuclear cells (PBMC).” left out, “FIG. 3C is a plot showing K ODN induced TNF-α production in pDC (in the absence or presence of 50 μg/ml dextran sulfate).” left out

[4] = test system: pDC; test: CXCL16 expression on pDC after preincubation of PBMC with GM-6001; format: cell-based, human; details: 50 μM, 30 minutes preincubation of PBMC
Protocol: (§2) FIGS. 7A-7B are a plot and a bar graph showing the metalloproteinase inhibitor GM-6001 enhances CXCL16 expression and subsequent cytokine production induced by D ODN. PBMC were preincubated in the absence (open bars) or presence (filled bars) of GM-6001 (50 μM) for 30 minutes, washed and then stained for CXCL16 expression on pDC (see FIG. 7A) or stimulated with 1 μM of K or 3 μM D ODN for 24 hours (FIG. 7B). Cytokine production (IL-6 for K ODN and IFN-α D ODN) was assessed from culture supernatants using ELISA. Individual results from six different PBMC are shown.
(§3) CXCL16 expressed on the cell surface is cleaved by the metalloproteinase ADAM-10 (Abel et al., J Immunol. 2004 172(10):6362-72, 2004; Gough et al., J Immunol. 172(6):3678-85, 2004). […] Based on the observation that pDC expressing high levels of CXCL16 were more responsive to D ODN stimulation, human PBMC were incubated with GM6001 followed by K or D ODNs.

[5] = test system: PBMC; test: Cytokine production of PBMC preincubated with GM-6001 and stimulated with K or D ODN (ELISA); format: cell-based, human; details: 50 μM preincubation, 24 hours
Protocol: as §2, §3

[6] = Cytokine induction by D ODN (statement in the description); format: cell-based; details: no test described
[7] = D ODN: 1 μM FITC conjugated ODN

Dextran sulfate
% inhibition of binding to pDC [1, 7]: > 50%
% inhibition of binding to pDC ([1]; D ODN: 1 μM FITC conjugated ODN, listed as Dextran Sulfate): 65.02 ± 5.8%
% inhibition of binding to pDC ([1]; K ODN: 1 μM FITC conjugated ODN): not
% inhibition of binding to pDC ([1]; K ODN: 1 μM FITC conjugated ODN, listed as Dextran Sulfate): 23.2 ± 8.8%
% inhibition of cytokine secretion ([2]; D ODN induced IFN-α production from PBMC, ELISA): 90.3 ± 8.4%
% inhibition of cytokine secretion ([2]; K ODN induced TNF-α production, intracytoplasmic staining): 5.8 ± 2.3%
% inhibition in the generation of HLA-DR/CD54 double positive cells ([3]; 1 μM K ODN): 0.8 ± 1.8%
% inhibition in the generation of HLA-DR/CD54 double positive cells ([3]; 3 μM D ODN): 92.3 ± 5.8%

chondroitin sulfate
% inhibition of binding to pDC [1, 7]: not

CNC(=O)[C@H](Cc1c[nH]c2ccccc12)NC(=O)[C@@H](CC(=O)NO)CC(C)C [GM6001]
expression of CXCL16 on pDC [4]: increased
effect on cells stimulated with K ODN (IL-6 production) ([5]; 1 μM K ODN): no effect
increase of D ODN responsiveness of pDCs (IFN-α production) ([5]; 3 μM D ODN): 2 fold

DV113: D ODN GGTGCATCGATACAGGGGGG (SEQ ID NO: 6) (DNA, backbone not given here; underlined bases phosphodiester, further chemistry not fully specified)
induction of IFN-γ and IFN-α [6]: high levels
